Reference: patent US20100272825A1, “METHOD OF DISINFECTING CARCASSES” (JOHNSONDIVERSEY, INC., priority 2006, published 2010)
Values joined by “and” are separate entries in the source; they are usually repeats but may differ in a detail not shown here. Equal entries are not always repeated.

Assays:
[1] = test system: Salmonella typhi, ATCC # 6359; test: AOAC Chlorine (Available) in Disinfectants, subculture series; format: cell-based; parameters: key to Subculture Series 1, growth / Subculture Series 10, growth / Subculture Series 2, growth / Subculture Series 3, growth / Subculture Series 4, growth / Subculture Series 5, growth / Subculture Series 6, growth / Subculture Series 7, growth / Subculture Series 8, growth / Subculture Series 9, growth: + = growth; − = no growth
Experimental: (§1) The invention will be further appreciated in light of the following detailed examples. In these examples, a chlorine dioxide solution was obtained by forming chlorous acid from an ion exchange resin, running this through a platinum catalyst to form chlorine dioxide. The chlorine dioxide obtained from the ion exchange resin catalyst combination was generally at about 650-750 ppm at a pH of about 2, which was then diluted with an acid solution of sodium bisulfate to reach the desired use concentration as set forth in the examples.

[2] = test system: Salmonella typhi, ATCC # 6539; test: Sanitizing effectiveness: modified Germicidal and Detergent Sanitizing Action of Disinfectants, A.O.A.C.; format: cell-based; details: 1 ppm Chlorine Dioxide; for Survivors: initial 116,000,000 org/ml
Experimental: as §1

[3] = pH 2.0, contact 10 seconds 25° C.
[4] = pH 2.5, contact 10 seconds 25° C.
[5] = pH 3.0, contact 10 seconds 25° C.
[6] = pH 3.5, contact 10 seconds 25° C.
[7] = pH 4.0, contact 10 seconds 25° C.

## [O][Cl+][O-] [Chlorine Dioxide, chlorine dioxide]
[1]; 15 ppm of ClO2 at pH 2.5
  germicidal efficacy expressed as equivalent concentration of sodium hypochlorite: 200 ppm
[1]; 15 ppm of ClO2 at pH 3.75
  germicidal efficacy expressed as equivalent concentration of sodium hypochlorite: > 100 ppm and < 200 ppm
[1]; ClO2 12 ppm, pH = 2.50
  Subculture Series 1, growth: −
  Subculture Series 2, growth: −
  Subculture Series 3, growth: −
  Subculture Series 4, growth: −
  Subculture Series 5, growth: +
  Subculture Series 6, growth: +
  Subculture Series 7, growth: +
  Subculture Series 8, growth: +
  Subculture Series 9, growth: +
  Subculture Series 10, growth: +
[1]; ClO2 12 ppm, pH = 3.82
  Subculture Series 1, growth: −
  Subculture Series 2, growth: −
  Subculture Series 3, growth: +
  Subculture Series 4, growth: +
  Subculture Series 5, growth: +
  Subculture Series 6, growth: +
  Subculture Series 7, growth: +
  Subculture Series 8, growth: +
  Subculture Series 9, growth: +
  Subculture Series 10, growth: +
[1]; ClO2 15 ppm, pH = 2.50
  Subculture Series 1, growth: −
  Subculture Series 2, growth: −
  Subculture Series 3, growth: −
  Subculture Series 4, growth: −
  Subculture Series 5, growth: −
  Subculture Series 6, growth: −
  Subculture Series 7, growth: −
  Subculture Series 8, growth: −
  Subculture Series 9, growth: +
  Subculture Series 10, growth: +
[1]; ClO2 15 ppm, pH = 3.75
  Subculture Series 1, growth: −
  Subculture Series 2, growth: −
  Subculture Series 3, growth: −
  Subculture Series 4, growth: −
  Subculture Series 5, growth: −
  Subculture Series 6, growth: +
  Subculture Series 7, growth: +
  Subculture Series 8, growth: +
  Subculture Series 9, growth: +
  Subculture Series 10, growth: +
[2]; [3]
  % Reduction: 99.103%
  Survivors: 1,040,000
[2]; [4]
  % Reduction: 99.207%
  Survivors: 920,000
[2]; [5]
  % Reduction: <97.845%
  Survivors: >2,500,000
[2]; [6]
  % Reduction: <97.845%
  Survivors: >2,500,000
[2]; [7]
  % Reduction: <97.845%
  Survivors: >2,500,000

## [Na+].[O-]Cl [NaOCl, sodium hypochlorite, reference compound]
[1]; NaOCl 50 ppm
  Subculture Series 1, growth: −
  Subculture Series 2, growth: +
  Subculture Series 3, growth: +
  Subculture Series 4, growth: +
  Subculture Series 5, growth: +
[1]; NaOCl 100 ppm
  Subculture Series 1, growth: −
  Subculture Series 2, growth: −
  Subculture Series 3, growth: −
  Subculture Series 4, growth: −
  Subculture Series 5, growth: +
  Subculture Series 6, growth: +
  Subculture Series 7, growth: +
  Subculture Series 8, growth: +
  Subculture Series 9, growth: +
  Subculture Series 10, growth: +
[1]; NaOCl 200 ppm
  Subculture Series 1, growth: −
  Subculture Series 2, growth: −
  Subculture Series 3, growth: −
  Subculture Series 4, growth: −
  Subculture Series 5, growth: −
  Subculture Series 6, growth: −
  Subculture Series 7, growth: −
  Subculture Series 8, growth: +
  Subculture Series 9, growth: +
  Subculture Series 10, growth: +
